Assay: Alkali-resistant solubility test (filtration of dyestuff in alkali solution)
Format: physicochemical
Conditions: aqueous alkali solution (Na2SiO2 and NaOH), aqueous buffer; Na2SiO2 50°Be′ = 100 g/L, NaOH 38°Be′ = 30 ml/L; filtered through No. 1 filter paper
Protocol: First, the dyestuffs of the formula (A) and the formula (1), taken with proper amounts in accordance to a preliminary test, are respectively dissolved in water. The alkali solution including 100 g/L 50°Be′ Na2SiO2 and 30 ml/L 38°Be′ NaOH is added therein, respectively. The mixture samples respectively are filtered through the No. 1 filter paper of Toyo Rosh Kaisha, Ltd. in order to estimate how many solids are residual and then to determine the alkali-resistant solubility.

CCN(c1cccc(S(=O)(=O)CCOS(=O)(=O)O)c1)c1nc(Nc2cc(S(=O)(=O)O)cc3c2[O][Cu-]24[O]C(=O)c5ccc(S(=O)(=O)O)cc5[N]2N=C(c2ccccc2)N=[N+]34)nc(SCC(=O)O)n1 (stereo not shown) [formula (1)]
solubility: > 70 mg/mL

— patent US20090018317A1, “Reactive dyestuffs with alkylthio group and beta-sulfatoethysulfone group” (Everlight USA, Inc., priority 2007, published 2009)
